These results are taken from patent US4153688A, “Trifluoromethylated oligopeptides” (Delalande S.A., priority 1977, dated 1979).

pIC50, pKi: −log10 of the molar value. Where a name gives a salt, the structure may show the parent alone. Read-outs that look alike come from different tables or passages of the source. Square brackets hold non-standard residues; d marks the D form. Peptide text beside a SMILES is read from it. * marks the point of attachment. pNA = O=[N+]([O-])c1ccc(N*)cc1; 4Abz = Nc1ccc(C(=O)O)cc1; Tfa = O=C(C(F)(F)F)*; NHPh = c1ccc(N*)cc1

For data set [1], the target named is T1, leucocytal elastase (Homo sapiens, UniProt P08246).
T1 construct: This latter was purified according to the Travis method; from tissue
T1 sequence (P08246 30-267): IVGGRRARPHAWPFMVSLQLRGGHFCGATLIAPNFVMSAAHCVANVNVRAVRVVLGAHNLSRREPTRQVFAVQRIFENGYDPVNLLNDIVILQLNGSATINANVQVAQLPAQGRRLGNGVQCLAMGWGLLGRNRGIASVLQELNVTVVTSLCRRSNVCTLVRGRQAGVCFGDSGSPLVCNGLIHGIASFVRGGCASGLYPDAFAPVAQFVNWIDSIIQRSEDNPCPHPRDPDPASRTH
The data set is described as follows: I50 on leucocytal elastase, hydrolysis of succinyl-tri-alanine-paranitroanilide at 10^-3 M. Conditions: 25° C., TRIS 0.2 M buffer, pH 8; substrate 10^-3 M; in the presence of 50 % dimethylformamide (footnote); read-out: T 50^ (b) leucocytal. It is filed as biochemical. The text has this:
(§1) This latter was purified according to the Travis method (Baugh, R. J. and Travis, J. (1976), Biochemistry, 15, 4, 836). The method of study used is the conventional method of Dixon (Dixon, M., (1953), Biochemical Journal, 55, 1970) for measuring the inhibition constants KI of the compounds of the invention with regard to the hydrolysis reactions of the succinyl-tri-L-alanine-paranitroanilide catalysed by the two above elastases (Bieth J., Spiess B. and Wermuth C. G. (1974) Biochemical Medicine, 11, 350). In certain cases (leucocytal elastase) the inhibitory power of the compounds studied was measured by means of the I50 concentration of these compounds inducing 50% inhibition of the hydrolysis of the succinyl-tri-alanine-paranitroanilide at a 10^-3 M concentration catalysed by the enzyme. […] All the measurements were made at 25° C. in a 0.2 Molar buffer solution of tri-hydroxymethyl-aminomethane at pH 8.

For data set [2], the target named is T2, porcine pancreatic elastase (Sus scrofa, UniProt P00772). Put plainly: Inhibition constant KI (Dixon method) on pancreatic elastase, hydrolysis of succinyl-tri-L-alanine-paranitroanilide. It is filed as biochemical. Particulars: 25° C., TRIS 0.2 M buffer, pH 8; absence of any organic solvent; read-out: K T^ (a) pancreatic.
T2 sequence (P00772 27-266): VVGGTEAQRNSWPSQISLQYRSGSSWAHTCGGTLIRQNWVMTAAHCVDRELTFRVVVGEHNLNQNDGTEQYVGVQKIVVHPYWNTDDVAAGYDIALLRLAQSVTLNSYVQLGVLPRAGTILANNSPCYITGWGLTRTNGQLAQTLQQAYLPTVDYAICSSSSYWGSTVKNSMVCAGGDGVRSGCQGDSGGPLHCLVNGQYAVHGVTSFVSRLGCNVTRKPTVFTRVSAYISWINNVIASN
Description: as §1
(§2) Table E below lists the results obtained for the compounds of formula (I) as well as the reference compounds (A), acetyl-L-prolyl-L-alanyl-L-prolyl-L-alaninal, for the pancreatic elastase (Thompson, R. C., Biochemistry (1973), 17, 1, 47) and (B), oleic acid, for the leucocytal elastase (Ashe, B. M. and Zimmerman, M. (1977), Biochem. Biophys. Res. Comm., 75, 194).

Data set [3] has as its target T1, leucocytal elastase. The data set is described as follows: Inhibition constant KI (Dixon method) on leucocytal elastase, hydrolysis of succinyl-tri-L-alanine-paranitroanilide. It is filed as biochemical. Particulars: 25° C., TRIS 0.2 M buffer, pH 8; absence of any organic solvent; read-out: K T^ (a) leucocytal.
Description: as §1, §2

Data set [4] has as its target T1, leucocytal elastase. Particulars: reference compound, Ashe and Zimmerman (1977); read-out: K T^ (a) leucocytal; cited from earlier work.
Data set [5] deals with mice. Put plainly: Intravenous toxicity on mice. It is filed as in vivo. Conditions: intravenously, 20, 40 and 80 mg/kg, solution in physiological serum containing 10% DMF. As for the experimental part: Furthermore, the toxicity of the compounds of the invention were studied intravenously on mice. More exactly, these compounds were tested in the form of a solution in physiological serum containing 10% DMF.
It is to be noted that it was not possible to use doses higher than those indicated above, because of the solubility limit of compound 3.

Data set [6] concerns the target T2, porcine pancreatic elastase. Particulars: reference compound, Thompson, Biochemistry (1973); read-out: K T^ (a) pancreatic; cited from earlier work.

Consider `C[C@H](NC(=O)[C@H](C)NC(=O)C(F)(F)F)C(=O)Nc1ccc(Cl)cc1` [compound 2], for which, in data set [1], the pIC50 was 4.00. Moreover, the pKi in data set [2] is 6.96.

Take `CC(=O)c1ccc(NC(=O)[C@H](C)NC(=O)[C@H](CCCCN)NC(=O)C(F)(F)F)cc1` [compound 16]: the values for the pKi in data set [3] and in data set [2] were 5.60 and 7.49, respectively. The pIC50 in data set [1] is 5.05.

For `C[C@H](NC(=O)C(F)(F)F)C(=O)N[C@@H](CCCCN)C(=O)Nc1ccc(C(F)(F)F)cc1` [compound 19], in data set [1], the pIC50 was 3.82. In data set [2], the pKi was 6.40.

Turning to `C[C@H](NC(=O)[C@H](C)NC(=O)C(F)(F)F)C(=O)Nc1ccc(C(=O)O)cc1` [compound 10] (Tfa-Ala-Ala-[4Abz]-OH), the pIC50 in data set [1] is 3.33. The pKi in data set [2] is 6.70.

Regarding `CC(NC(=O)C(F)(F)F)C(=O)NC(C(=O)Nc1ccccc1)C(F)(F)F` (mixture of isomers) [compound 17], the pIC50 in data set [1] is 3.40. Also, the pKi in data set [2] is 6.57.

Regarding `C[C@H](NC(=O)[C@H](CCCCN)NC(=O)C(F)(F)F)C(=O)Nc1ccc(C(F)(F)F)cc1` [compound 12], the figures for the pKi in data set [3] and in data set [2] were 5.52 and 7.60, respectively. Besides, in data set [1], the pIC50 is 4.46.

Consider `COc1ccc(NC(=O)[C@H](C)NC(=O)[C@H](C)NC(=O)C(F)(F)F)cc1` [compound 7], for which the pIC50 in data set [1] is 4.52. Moreover, the pKi in data set [2] was 6.54.

For `CCCCCCCC/C=C\CCCCCCCC(=O)O` [B, oleic acid], the pKi in data set [4] was 5.05.

Take `C[C@H](NC(=O)[C@H](C)NC(=O)C(F)(F)F)C(=O)Nc1ccccc1` [compound 1] (Tfa-Ala-Ala-NHPh): in data set [1], the pIC50 was 3.60. In data set [2], the pKi was 6.60.

Regarding `C[C@H](NC(=O)[C@H](C)NC(=O)C(F)(F)F)C(=O)Nc1cccc(C(F)(F)F)c1` [compound 6], the pIC50 in data set [1] was 3.92. For the same molecule, in data set [2], the pKi is 6.10.

`CC(C)c1ccc(NC(=O)[C@H](C)NC(=O)[C@H](C)NC(=O)C(F)(F)F)cc1` [compound 8]: the pIC50 in data set [1] is 4.92. For the same molecule, in data set [2], the pKi was 6.26.

Turning to `CC(C)c1ccc(NC(=O)[C@H](C)NC(=O)[C@H](CCCCN)NC(=O)C(F)(F)F)cc1` [compound 14], the pKi was 6.15 in data set [3] and 7.30 in data set [2]. Also, the pIC50 in data set [1] is 5.24.

For `C[C@H](NC(=O)[C@H](C)NC(=O)C(F)(F)F)C(=O)Nc1ccc([N+](=O)[O-])cc1` [Code number 3, N-trifluoroacetyl-L-alanyl-L-alanyl-p-nitroanilide] (Tfa-Ala-Ala-pNA), the mortality result in data set [5] is “no case of mortality was observed”. In addition, the pIC50 in data set [1] was 4.11. Further, the pKi in data set [2] was 6.92.

In the case of `CC(=O)N1CCC[C@H]1C(=O)N[C@@H](C)C(=O)N1CCC[C@H]1C(=O)N[C@@H](C)C=O` [A, acetyl-L-prolyl-L-alanyl-L-prolyl-L-alaninal] (Ac-PAPA-aldehyde), in data set [6], the pKi is 6.10.

As to `C[C@H](NC(=O)[C@H](CCCCN)NC(=O)C(F)(F)F)C(=O)Nc1ccccc1` [compound 11] (Tfa-Lys-Ala-NHPh), the results for the pKi in data set [3] and in data set [2] were 4.36 and 7.40, respectively. Besides, in data set [1], the pIC50 is 3.82.

Regarding `C[C@H](NC(=O)[C@H](C)NC(=O)C(F)(F)F)C(=O)Nc1ccc(C(F)(F)F)cc1` [compound 5], the pIC50 in data set [1] is 4.25. For the same molecule, in data set [2], the pKi was 7.05.

On to `C[C@H](NC(=O)[C@H](C)NC(=O)C(F)(F)F)C(=O)Nc1cccc([N+](=O)[O-])c1` [compound 4], for which the pIC50 in data set [1] was 3.82. The pKi in data set [2] is 6.42.

As to `Cc1ccc(NC(=O)[C@H](C)NC(=O)[C@H](CCCCN)NC(=O)C(F)(F)F)cc1` [compound 13], the pKi was 4.85 in data set [3] and 7.52 in data set [2]. Besides, the pIC50 in data set [1] was 4.30.

On to `C[C@H](NC(=O)[C@H](C)NC(=O)C(F)(F)F)C(=O)Nc1ccc(C#N)cc1` [compound 9], for which, in data set [1], the pIC50 is 4.00. Also, the pKi in data set [2] is 6.96.
